Laboratory results taken from patent US20210346357A1 (priority 2020, published 2021).

Tested on: IL-13 induced pSTAT6 in lung tissue
Assay: Murine model of IL-13 induced pSTAT6 induction in lung tissue
Assay type: in vivo
Conditions: mouse lung, oral aspiration 1 mg/mL 50 μL, IL-13 challenge at 4 h; scale 0% to 100% inhibitory effect
Description: Assay 3: Murine (Mouse) Model of IL-13 induced pSTAT6 Induction in Lung Tissue
IL-13 is an important cytokine underlying the pathophysiology of asthma (Kudlacz et al. Eur. J. Pharmacol, 2008, 582,154-161). IL-13 binds to cell surface receptors activating members of the Janus family of kinases (JAK) which then phosphorylate STAT6 and subsequently activates further transcription pathways. In the described model, a dose of IL-13 was delivered locally into the lungs of mice to induce the phosphorylation of STAT6 (pSTAT6) which is then measured as the endpoint.
Adult Balb/c mice from Harlan were used in the assay. […] Animals were placed in lateral recumbency post dose and monitored for full recovery from anesthesia before being returned to their home cage. Four hours later, animals were once again briefly anesthetized and challenged with either vehicle or IL-13 (0.03 μg total dose delivered, 50 μL total volume) via oral aspiration before being monitored for recovery from anesthesia and returned to their home cage. […] Plasma and lung levels of test compound were determined by LC-MS analysis against analytical standards constructed into a standard curve in the test matrix. A lung to plasma ratio was determined as the ratio of the lung concentration in ng/g to the plasma concentration in ng/mL at 5 hours. […]

`CCc1cc(O)ccc1-c1ccc2c(-c3nc4c([nH]3)CN(C(C)C)[C@H](C(=O)N3CC(N(C)C)C3)C4)n[nH]c2c1` [Compound 1, (S)-(3-(dimethylamino)azetidin-1-yl)(2-(6-(2-ethyl-4-hydroxyphenyl)-1H-indazol-3-yl)-5-isopropyl-4,5,6,7-tetrahydro-3H-imidazo[4,5-c]pyridin-6-yl)methanone] was tested. Which “pSTAT6 inhibition at 5 hours” value did it give?
Its value is 75.
